Experimental data taken from US10233182B2, “Substituted spirocyclic inhibitors of autotaxin” (X-Rx, Inc., priority 2014, dated 2019).
Structures can show the parent of a compound that is named as a salt.

Each compound was assayed against Autotaxin (Homo sapiens (Human), UniProt Q13822) (assay: Autotaxin LPC Cascade Assay). Settings: Autotaxin 5 nM, LPC 100 μM, choline oxidase/HRP/Ampliflu Red fluorescence read-out, 2% DMSO, RT; read-out: IC50 ATX Activity.
Assay type: biochemical
In short: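 Choline liberated from LPC by autotaxin during 1 h, after a 10-min RT compound preincubation, was converted through choline oxidase/HRP to a fluorescent Ampliflu Red product.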

| Structure (SMILES) | IC50 |
| --- | --- |
| COc1cc(N2CN(C)C(=O)C23CCN(C(=O)[C@H](NC(=O)c2cc(C(F)(F)F)ccc2F)C(C)C)CC3)ccc1C(=O)O [Example 151] | < 500 nM |
| CCc1ccc(F)c(C(=O)N[C@@H](C(=O)N2CCC3(CC2)C(=O)N(C)CN3c2ccc(C(=O)O)cc2)C(C)C)c1 [Example 152, (R)-4-(8-(2-(5-Ethyl-2-fluorobenzamido)-3-methylbutanoyl)-3-methyl-4-oxo-1,3,8-triazaspiro[4.5]decan-1-yl)benzoic Acid] | < 500 nM |
| CC(C)[C@@H](NC(=O)c1cc(C2CC2)ccc1F)C(=O)N1CCC2(CC1)C(=O)N(C)CN2c1ccc(C(=O)O)cc1 [Example 153, (R)-4-(8-(2-(5-Cyclopropyl-2-fluorobenzamido)-3-methylbutanoyl)-3-methyl-4-oxo-1,3,8-triazaspiro[4.5]decan-1-yl)benzoic Acid] | < 500 nM |
| CC(C)[C@@H](NC(=O)c1cc(C(F)(F)F)ccc1F)C(=O)N1CCC2(CC1)C(=O)N(C)CN2c1ccc(C(=O)O)c(Cl)c1 [Example 154, (R)-2-Chloro-4-(8-(2-(2-fluoro-5-(trifluoromethyl)benzamido)-3-methylbutanoyl)-3-methyl-4-oxo-1,3,8-triazaspiro[4.5]decan-1-yl)benzoic Acid] | < 500 nM |
| CC(C)[C@@H](NC(=O)c1cc(C(F)(F)F)ccc1F)C(=O)N1CCC2(CC1)C(=O)N(CC1CC1)CN2c1ccc(C(=O)O)cc1 [Example 155, (R)-4-(3-(Cyclopropylmethyl)-8-(2-(2-fluoro-5-(trifluoromethyl)benzamido)-3-methylbutanoyl)-4-oxo-1,3,8-triazaspiro[4.5]decan-1-yl)benzoic Acid] | < 500 nM |
| CN1CN(c2ccc(C(=O)O)cc2)C2(CCN(C(=O)[C@H](NC(=O)c3cc(C(F)(F)F)ccc3F)C3CCCC3)CC2)C1=O [Example 156, (R)-4-(8-(2-Cyclopentyl-2-(2-fluoro-5-(trifluoromethyl)benzamido)acetyl)-3-methyl-4-oxo-1,3,8-triazaspiro[4.5]decan-1-yl)benzoic Acid] | < 500 nM |
| CC(C)[C@@H](NC(=O)c1cc(C(F)(F)F)ccc1F)C(=O)N1CCC2(CC1)C(=O)N(C)CN2c1ccc(C(N)=O)cc1 [Example 157, (R)—N-(1-(1-(4-Carbamoylphenyl)-3-methyl-4-oxo-1,3,8-triazaspiro[4.5]decan-8-yl)-3-methyl-1-oxobutan-2-yl)-2-fluoro-5-(trifluoromethyl)benzamide] | < 500 nM |
| Cc1cc(N2CN(C)C(=O)C23CCN(C(=O)[C@H](NC(=O)c2cc(C(F)(F)F)ccc2F)C(C)C)CC3)ccc1C(=O)O [Example 158, (R)-4-(8-(2-(2-Fluoro-5-(trifluoromethyl)benzamido)-3-methylbutanoyl)-3-methy-4-oxo-1,3,8-triazaspiro[4.5]decan-1-yl)-2-methylbenzoic Acid] | ≥ 1000 nM |
| CN1CN(c2ccc(C(=O)O)cc2)C2(CCN(C(=O)[C@H](NC(=O)c3cc(C(F)(F)F)ccc3F)C(C)(C)C)CC2)C1=O [Example 159] | ≥ 1000 nM |
| CC(C)[C@@H](NC(=O)c1cc(Cl)cc(C(F)(F)F)c1)C(=O)N1CCC2(CC1)C(=O)N(C)CN2c1ccc(C(=O)O)cc1 [Example 160, (R)-4-(8-(2-(3-Chloro-5-(trifluoromethyl)benzamido)-3-methylbutanoyl)-3-methyl-4-oxo-1,3,8-triazaspiro[4.5]decan-1-yl)benzoic Acid] | < 500 nM |
| Cc1ccc(C(F)(F)F)cc1C(=O)N[C@@H](C(=O)N1CCC2(CC1)C(=O)N(C)CN2c1ccc(C(=O)O)cc1)C(C)C [Example 161, (R)-4-(3-Methyl-8-(3-methyl-2-(2-methyl-5-(trifluoromethyl)benzamido)butanoyl)-4-oxo-1,3,8-triazaspiro[4.5]decan-1-yl)benzoic Acid] | 500 to 1000 nM |
| CC(C)[C@@H](NC(=O)c1cc(OC(F)(F)F)ccc1F)C(=O)N1CCC2(CC1)C(=O)N(C)CN2c1ccc(C(=O)O)cc1 [Example 162, (R)-4-(8-(2-(2-Fluoro-5-(trifluoromethoxy)benzamido)-3-methylbutanoyl)-3-methyl-4-oxo-1,3,8-triazaspiro[4.5]decan-1-yl)benzoic Acid] | < 500 nM |
| COc1ccc(F)c(C(=O)N[C@@H](C(=O)N2CCC3(CC2)C(=O)N(C)CN3c2ccc(C(=O)O)cc2)C(C)C)c1 [Example 163, (R)-4-(8-(2-(2-Fluoro-5-methoxybenzamido)-3-methylbutanoyl)-3-methyl-4-oxo-1,3,8-triazaspiro[4.5]decan-1-yl)benzoic Acid] | < 500 nM |
| CC(C)[C@@H](NC(=O)C12CC3CC(CC(C3)C1)C2)C(=O)N1CCC2(CC1)C(=O)N(C)CN2c1ccc(C(=O)O)cc1 [Example 164, (R)-4-(8-(2-(1-Admantanecarboxamido)-3-methylbutanoyl)-3-methyl-4-oxo-1,3,8-triazaspiro[4.5]decan-1-yl)benzoic Acid] | ≥ 1000 nM |
| CC(C)[C@@H](NC(=O)c1cc(OC(F)F)ccc1F)C(=O)N1CCC2(CC1)C(=O)N(C)CN2c1ccc(C(=O)O)cc1 [Example 165, (R)-4-(8-(2-(5-(Difluoromethoxy)-2-fluorobenzamido)-3-methylbutanoyl)-3-methyl-4-oxo-1,3,8-triazaspiro[4.5]decan-1-yl)benzoic Acid] | < 500 nM |
| CC(C)[C@@H](NC(=O)c1cc(OC(F)F)ccc1F)C(=O)N1CCC2(CC1)C(=O)N(C)C(=O)N2c1ccc(C(=O)O)cc1 [Example 166, (R)-4-(8-(2-(5-(Difluoromethoxy)-2-fluorobenzamido)-3-methylbutanoyl)-3-methyl-2,4-dioxo-1,3,8-triazaspiro[4.5]decan-1-yl)benzoic Acid] | < 500 nM |
| CC(C)[C@@H](NC(=O)c1cc(OC(F)(F)F)ccc1F)C(=O)N1CCC2(CC1)C(=O)N(C)C(=O)N2c1ccc(C(=O)O)cc1 [Example 167, (R)-4-(8-(2-(2-Fluoro-5-(trifluoromethoxy)benzamido)-3-methylbutanoyl)-3-methyl-2,4-dioxo-1,3,8-triazaspiro[4.5]decan-1-yl)benzoic Acid] | < 500 nM |
| CCc1ccc(F)c(C(=O)N[C@@H](C(=O)N2CCC3(CC2)C(=O)N(C)CN3c2ccc(OCC(=O)O)cc2)C(C)C)c1 [Example 168, (R)-2-(4-(8-(2-(5-Ethyl-2-fluorobenzamido)-3-methylbutanoyl)-3-methyl-4-oxo-1,3,8-triazaspiro[4.5]decan-1-yl)phenoxy)acetic Acid] | < 500 nM |
| CCc1ccc(F)c(C(=O)N[C@@H](C(=O)N2CCC3(CC2)C(=O)N(C)CN3c2ccc(OCC(N)=O)cc2)C(C)C)c1 [Example 169, (R)—N-(1-(1-(4-(2-Amino-2-oxoethoxy)phenyl)-3-methyl-4-oxo-1,3,8-triazaspiro[4.5]decan-8-yl)-3-methyl-1-oxobutan-2-yl)-5-ethyl-2-fluorobenzamide] | < 500 nM |
| CCc1ccc(F)c(C(=O)N[C@@H](C(=O)N2CCC3(CC2)C(=O)N(C)CN3c2ccc(OCC#N)cc2)C(C)C)c1 [Example 170, (R)—N-(1-(1-(4-(Cyanomethoxy)phenyl)-3-methyl-4-oxo-1,3,8-triazaspiro[4.5]decan-8-yl)-3-methyl-1-oxobutan-2-yl)-5-ethyl-2-fluorobenzamide] | < 500 nM |
| CC(C)[C@@H](NC(=O)c1cc(C(F)(F)F)ccc1F)C(=O)N1CCC2(CC1)C(=O)N(C)CN2c1ccc(OCCN(C)C)cc1 [Example 171, (R)—N-(1-(1-(4-(2-(Dimethylamino)ethoxy)phenyl)-3-methyl-4-oxo-1,3,8-triazaspiro[4.5]decan-8-yl)-3-methyl-1-oxobutan-2-yl)-2-fluoro-5-(trifluoromethyl)benzamide trifluoroacetic Acid Salt] | < 500 nM |
| CCc1ccc(F)c(C(=O)N[C@@H](C(=O)N2CCC3(CC2)C(=O)N(C)CN3c2ccc(NC(C)=O)cc2)C(C)C)c1 [Example 172, (R)—N-(1-(1-(4-Acetamidophenyl)-3-methyl-4-oxo-1,3,8-triazaspiro[4.5]decan-8-yl)-3-methyl-1-oxobutan-2-yl)-5-ethyl-2-fluorobenzamide] | < 500 nM |
| CCc1ccc(F)c(C(=O)N[C@@H](C(=O)N2CCC3(CC2)C(=O)N(C)CN3c2ccc(NS(C)(=O)=O)cc2)C(C)C)c1 [Example 173, (R)-5-Ethyl-2-fluoro-N-(3-methyl-1-(3-methyl-1-(4-(methylsulfonamido)phenyl)-4-oxo-1,3,8-triazaspiro[4.5]decan-8-yl)-1-oxobutan-2-yl)benzamide] | < 500 nM |
| CC(C)[C@@H](NC(=O)c1cc(C(F)(F)F)ccc1F)C(=O)N1CCC2(CC1)C(=O)N(C)CN2c1ccc(NS(C)(=O)=O)cc1 [Example 174, (R)-2-Fluoro-N-(3-methyl-1-(3-methyl-1-(4-(methylsulfonamido)phenyl)-4-oxo-1,3,8-triazaspiro[4.5]decan-8-yl)-1-oxobutan-2-yl)-5-(trifluoromethyl)benzamide] | < 500 nM |
| COC(=O)Nc1ccc(N2CN(C)C(=O)C23CCN(C(=O)[C@H](NC(=O)c2cc(C(F)(F)F)ccc2F)C(C)C)CC3)cc1 [Example 175, (R)-Methyl-4-(8-(2-(2-fluoro-5-(trifluoromethyl)benzamido)-3-methylbutanoyl)-3-methyl-4-oxo-1,3,8-triazaspiro[4.5]decan-1-yl)phenylcarbamate] | < 500 nM |
| Cc1cc(F)cc(C(=O)N[C@@H](C(=O)N2CCC3(CC2)C(=O)N(CC(=O)O)CN3c2ccccc2)C(C)C)c1 [Example 176, (R)-2-(8-(2-(3-Fluoro-5-methylbenzamido)-3-methylbutanoyl)-4-oxo-1-phenyl-1,3,8-triazaspiro[4.5]decan-3-yl)acetic Acid] | 500 to 1000 nM |
| Cc1cccc(C(=O)N[C@@H](C(=O)N2CCC3(CC2)C(=O)N(CCCS(C)(=O)=O)CN3c2ccccc2)C(C)C)c1F [Example 177, (R)-2-Fluoro-3-methyl-N-(3-methyl-1-(3-(3-(methylsulfonyl)propyl)-4-oxo-1-phenyl-1,3,8-triazaspiro[4.5]decan-8-yl)-1-oxobutan-2-yl)benzamide] | < 500 nM |
| CCc1ccc(F)c(C(=O)N[C@@H](C(=O)N2CCC3(CC2)C(=O)N(CC#N)CN3c2ccccc2)C(C)C)c1 [Example 178, (R)—N-(1-(3-(Cyanomethyl)-4-oxo-1-phenyl-1,3,8-triazaspiro[4.5]decan-8-yl)-3-methyl-1-oxobutan-2-yl)-5-ethyl-2-fluorobenzamide] | < 500 nM |
